# Experimental data published in US20260265233A1, “BENZOTHIOPHENE DERIVATIVES AS RXFP1 AGONISTS” (BRISTOL-MYERS SQUIBB COMPANY, priority 2021, published 2026).
# pEC50: −log10 of the molar value.
# What was measured:
# [1] = intravenous (IV) formulation; cited from earlier work
# human RXFP1 = target: T1, human RXFP1 (Homo sapiens, UniProt Q9HBX9); assay: hRXFP1 HEK293 cAMP assay (HTRF); type: cell-based; settings: HEK293 cells stably expressing human RXFP1; 30 min at rt; intracellular cAMP by HTRF
# T1 construct: expressed in transfected cells
# T1 sequence (Q9HBX9 1-757): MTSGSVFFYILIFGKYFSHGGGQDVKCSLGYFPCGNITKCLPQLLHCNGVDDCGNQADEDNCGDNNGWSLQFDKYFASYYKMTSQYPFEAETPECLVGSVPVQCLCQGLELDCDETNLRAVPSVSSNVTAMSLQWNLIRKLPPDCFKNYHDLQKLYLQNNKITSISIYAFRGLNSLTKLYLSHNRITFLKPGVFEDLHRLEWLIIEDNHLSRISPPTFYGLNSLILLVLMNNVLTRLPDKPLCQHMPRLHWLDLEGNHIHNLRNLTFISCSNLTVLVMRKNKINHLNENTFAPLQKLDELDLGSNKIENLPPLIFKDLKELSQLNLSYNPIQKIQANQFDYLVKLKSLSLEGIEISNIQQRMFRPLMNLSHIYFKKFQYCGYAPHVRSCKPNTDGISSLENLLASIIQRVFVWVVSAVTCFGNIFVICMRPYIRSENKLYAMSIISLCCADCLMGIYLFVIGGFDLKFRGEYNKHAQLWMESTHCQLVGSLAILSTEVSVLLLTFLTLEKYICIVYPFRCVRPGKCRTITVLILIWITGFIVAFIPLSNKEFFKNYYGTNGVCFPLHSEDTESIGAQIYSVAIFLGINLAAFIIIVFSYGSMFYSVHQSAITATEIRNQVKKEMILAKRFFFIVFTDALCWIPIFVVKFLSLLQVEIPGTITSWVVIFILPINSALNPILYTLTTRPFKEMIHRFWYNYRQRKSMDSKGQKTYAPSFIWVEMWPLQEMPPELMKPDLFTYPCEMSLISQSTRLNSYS
# In short: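 HEK293 cells stably expressing human RXFP1 treated 30 min at rt with compound (0.010 nM to 50 μM, 2% DMSO) in HBSS/HEPES buffer with 0.5 mM IBMX. Intracellular cAMP measured by HTRF (665/590 nm ratio) against a cAMP standard curve; potency fitted by 4-parameter logistic.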
pEC50 (human RXFP1),Compound,first-phase pharmacokinetic half-life [1] [min]
–,"Serelaxin: ""an intravenous (IV) formulation of the recombinant human relaxin peptide with a relatively short first-phase pharmacokinetic half-life of 0.09 hours""",5.4
6.65,"COc1ccc(C2CCCN(C3COC3)C2)cc1C(=O)Nc1c(C(=O)Nc2ccc(F)c(C(F)(F)F)c2)sc2cc(C(F)(F)F)ccc12 (stereo not drawn) [Example 84, N-(4-fluoro-3-(trifluoromethyl)phenyl)-3-(2-methoxy-5-(1-(oxetan-3-yl)piperidin-3-yl)benzamido)-6-(trifluoromethyl) benzo[b] thiophene-2-carboxamide]",–
8.04,"COc1ncc(C(=O)NCC2(S(C)(=O)=O)CC2)cc1C(=O)Nc1c(C(=O)Nc2ccc(F)c(C(F)(F)F)c2)sc2cc(C(F)(F)F)ccc12 [Example 171, N3-(2-((4-fluoro-3-(trifluoromethyl)phenyl)carbamoyl)-6-(trifluoromethyl)benzo[b]thiophen-3-yl)-2-methoxy-N5-((1-(methylsulfonyl)cyclopropyl)methyl) pyridine-3,5-dicarboxamide]",–
5.95,"COc1ccc(C2=NOC3(C2)CN(C(=O)C(C)(C)CO)C3)cc1C(=O)Nc1c(C(=O)Nc2ccc(F)c(C(F)(F)F)c2)sc2cc(C(F)(F)F)ccc12 [Example 283, N-(4-fluoro-3-(trifluoromethyl)phenyl)-3-(5-(2-(3-hydroxy-2,2-dimethyl-propanoyl)-5-oxa-2,6-diazaspiro[3.4]oct-6-en-7-yl)-2-methoxy-benzamido)-6-(trifluoromethyl) benzo[b] thiophene-2-carboxamide]",–
6.75,"COc1ccc(C(=O)N2CC(C(C)(C)O)C2)cc1C(=O)Nc1c(C(=O)Nc2ccc(F)c(C(F)(F)F)c2)sc2cc(C(F)(F)F)ccc12 [Example 179, N-(4-fluoro-3-(trifluoromethyl)phenyl)-3-(5-(3-(2-hydroxypropan-2-yl)azetidine-1-carbonyl)-2-methoxy-benzamido)-6-(trifluoromethyl) benzo[b] thiophene-2-carboxamide]",–
8.02,"COc1ccc(C2=NOC3CC(C(C)(C)O)CC23)cc1C(=O)Nc1c(C(=O)Nc2ccc(F)c(C(F)(F)F)c2)sc2cc(C(F)(F)F)ccc12 (single isomer, unassigned) [Example 56, N-(4-fluoro-3-(trifluoromethyl)phenyl)-3-(5-(5-(2-hydroxypropan-2-yl)-3a, 5,6,6a-tetrahydro-4H-cyclopenta[d]isoxazol-3-yl)-2-methoxybenzamido)-6-(trifluoromethyl)benzo[b]thiophene-2-carboxamide]",–
6.59,"COc1ccc(-c2ccc(N3CCNCC3)nc2)cc1C(=O)Nc1c(C(=O)Nc2ccc(F)c(C(F)(F)F)c2)sc2cc(C(F)(F)F)ccc12 [Example 118, N-(4-fluoro-3-(trifluoromethyl)phenyl)-3-(2-methoxy-5-(6-(piperazin-1-yl)pyridin-3-yl)benzamido)-6-(trifluoromethyl) benzo[b] thiophene-2-carboxamide]",–
5.55,"COc1ccc(C2CCCNCC2)cc1C(=O)Nc1c(C(=O)Nc2ccc(F)c(C(F)(F)F)c2)sc2cc(C(F)(F)F)ccc12 (stereo not drawn) [Example 39, 3-(5-(azepan-4-yl)-2-methoxybenzamido)-N-(4-fluoro-3-(trifluoromethyl)phenyl)-6-(trifluoromethyl)benzo[b]thiophene-2-carboxamide]",–
7.29,"COc1ccc(C(=O)NCC2(S(C)(=O)=O)CC2)cc1C(=O)Nc1c(C(=O)Nc2ccc(F)c(C(F)(F)F)c2)sc2cc(C(F)(F)F)ccc12 [Example 131, N3-(2-((4-fluoro-3-(trifluoromethyl)phenyl)carbamoyl)-6-(trifluoromethyl)benzo[b]thiophen-3-yl)-4-methoxy-N1-((1-(methylsulfonyl)cyclopropyl)methyl) isophthalamide]",–
6.33,"COc1ccc(C2CCCNC2)cc1C(=O)Nc1c(C(=O)Nc2ccc(F)c(C(F)(F)F)c2)sc2cc(C(F)(F)F)ccc12 (single isomer, unassigned) [Example 77, N-(4-fluoro-3-(trifluoromethyl)phenyl)-3-(2-methoxy-5-(piperidin-3-yl)benzamido)-6-(trifluoromethyl) benzo[b] thiophene-2-carboxamide]",–
5.47,"COc1ccc(-c2cnc(C3(O)CCS(=O)(=O)C3)nc2)cc1C(=O)Nc1c(C(=O)Nc2ccc(F)c(C(F)(F)F)c2)sc2cc(C(F)(F)F)ccc12 (single isomer, unassigned) [Example 24, N-(4-fluoro-3-(trifluoromethyl)phenyl)-3-(5-(2-(3-hydroxy-1,1-dioxidotetrahydrothiophen-3-yl)pyrimidin-5-yl)-2-methoxybenzamido)-6-(trifluoromethyl)benzo[b]thiophene-2-carboxamide]",–
6.55,"COc1ccc(C2=NOC(CO)C2)cc1C(=O)Nc1c(C(=O)Nc2ccc(F)c(C(F)(F)F)c2)sc2cc(C(F)(F)F)ccc12 (single isomer, unassigned) [Example 250, N-(4-fluoro-3-(trifluoromethyl)phenyl)-3-(5-(5-(hydroxymethyl)-4,5-dihydroisoxazol-3-yl)-2-methoxy-benzamido)-6-(trifluoromethyl) benzo[b] thiophene-2-carboxamide]",–
5.32,"COc1ccc(C(=O)NCCS(C)(=O)=O)cc1C(=O)Nc1c(C(=O)Nc2ccc(F)c(C(F)(F)F)c2)sc2cc(C(F)(F)F)ccc12 [Example 232, N3-(2-((4-fluoro-3-(trifluoromethyl)phenyl)carbamoyl)-6-(trifluoromethyl)benzo[b]thiophen-3-yl)-4-methoxy-N1-(2-(methylsulfonyl)ethyl) isophthalamide]",–
7.33,"COc1ccc(C2CCCN(CC(N)=O)CC2)cc1C(=O)Nc1c(C(=O)Nc2ccc(F)c(C(F)(F)F)c2)sc2cc(C(F)(F)F)ccc12 (single isomer, unassigned) [Example 70, 3-(5-(1-(2-amino-2-oxoethyl)azepan-4-yl)-2-methoxy-benzamido)-N-(4-fluoro-3-(trifluoromethyl)phenyl)-6-(trifluoromethyl) benzo[b] thiophene-2-carboxamide]",–
5.89,"COc1ccc(C2=NOC3(C2)CN(C(=O)C(C)(C)O)C3)cc1C(=O)Nc1c(C(=O)Nc2ccc(F)c(C(F)(F)F)c2)sc2cc(C(F)(F)F)ccc12 [Example 284, N-(4-fluoro-3-(trifluoromethyl)phenyl)-3-(5-(2-(2-hydroxy-2-methylpropanoyl)-5-oxa-2,6-diazaspiro[3.4]oct-6-en-7-yl)-2-methoxy-benzamido)-6-(trifluoromethyl) benzo[b] thiophene-2-carboxamide]",–
6.67,"COc1ccc(C2CCCC(O)C2)cc1C(=O)Nc1c(C(=O)Nc2ccc(F)c(C(F)(F)F)c2)sc2cc(C(F)(F)F)ccc12 (single isomer, unassigned) [Example 33, N-(4-fluoro-3-(trifluoromethyl)phenyl)-3-(5-(3-hydroxycyclohexyl)-2-methoxybenzamido)-6-(trifluoromethyl)benzo[b]thiophene-2-carboxamide]",–
5.60,"COc1ccc(C(=O)N(C)C)cc1C(=O)Nc1c(C(=O)Nc2ccc(F)c(C(F)(F)F)c2)sc2cc(C(F)(F)F)ccc12 [Example 220, N3-(2-((4-fluoro-3-(trifluoromethyl)phenyl)carbamoyl)-6-(trifluoromethyl)benzo[b]thiophen-3-yl)-4-methoxy-N1,N1-dimethyl-isophthalamide]",–
6.01,"COc1ccc(/C=C\C(=O)O)cc1C(=O)Nc1c(C(=O)Nc2ccc(F)c(C(F)(F)F)c2)sc2cc(C(F)(F)F)ccc12 [Example 45, (Z)-3-(3-((2-((4-fluoro-3-(trifluoromethyl)phenyl)carbamoyl)-6-(trifluoromethyl)benzo[b]thiophen-3-yl)carbamoyl)-4-methoxyphenyl) acrylic acid]",–
